In assay [1] the test system is Aves. The assay can be described thus: Relative yield of the product (3b) derived from the compound with DMAPP in the enzymatic reaction catalyzed by FPP synthase from avian liver; ND = Not detected. Type of assay: functional.
The subject of assay [2] is Geobacillus stearothermophilus. Kind of assay: (§1) Relative yield of the product (3b) derived from the compound with DMAPP in the enzymatic reaction catalyzed by FPP synthase from Bacillus stearothermophilus. It is filed as functional.
Assay [3] concerns Geobacillus stearothermophilus. The assay can be described thus: Relative yield of the product (4d) derived from the compound with GPP in the enzymatic reaction catalyzed by FPP synthase from B. stearothermophilus; ND = Not detected. It is filed as functional.
Assay [4] is filed under the species Sus scrofa. The assay can be described thus: Relative yield of the product (3b) derived from the compound with DMAPP in the enzymatic reaction catalyzed by FPP synthase from porcine liver; ND = Not detected. Type of assay: functional, organism-based.
The species named for assay [5] is Sus scrofa. The assay can be described thus: Relative yield of the product (4d) derived from the compound with DMAPP in the enzymatic reaction catalyzed by FPP synthase from porcine liver; ND = Not detected. It is filed as functional.
In assay [6] the test system is Aves. Kind of assay: Relative yield of the product (4d) derived from the compound with DMAPP in the enzymatic reaction catalyzed by FPP synthase from avian liver; ND = Not detected. Type of assay: functional.
Assay [7] concerns Aves. The assay can be described thus: Relative yield of the product (4c) derived from the compound with GPP in the enzymatic reaction catalyzed by FPP synthase from avian liver; ND = Not detected. Type of assay: functional.
Assay [8] deals with Geobacillus stearothermophilus. The assay can be described thus: Relative yield of the product (3c) derived from the compound with DMAPP in the enzymatic reaction catalyzed by FPP synthase from Bacillus stearothermophilus. It is filed as functional.
Assay [9] concerns Geobacillus stearothermophilus. The assay can be described thus: Relative yield of the product (4c) derived from the compound with GPP in the enzymatic reaction catalyzed by FPP synthase from Bacillus stearothermophilus. It is filed as functional.
The test system of assay [10] is Aves. The assay can be described thus: Relative yield of the product (3c) derived from the compound with DMAPP in the enzymatic reaction catalyzed by FPP synthase from avian liver. Type of assay: functional.
The species entered for assay [11] is Sus scrofa. The assay can be described thus: Relative yield of the product (4c) derived from the compound with GPP in the enzymatic reaction catalyzed by FPP synthase from porcine liver. Type of assay: functional.
The species entered for assay [12] is Sus scrofa. Kind of assay: Relative yield of the product (3c) derived from the compound with DMAPP in the enzymatic reaction catalyzed by FPP synthase from porcine liver. It is filed as functional.
Assay [13] deals with Farnesyl diphosphate synthase (Aves). Kind of assay: Relative yield of the product (4b') derived from the compound with GPP in the enzymatic reaction catalyzed by FPP synthase from avian liver.
Assay [14] has as its system Farnesyl diphosphate synthase (Sus scrofa). Kind of assay: Relative yield of the product (4b) derived from the compound with DMAPP in the enzymatic reaction catalyzed by FPP synthase from porcine liver.
Assay [15] concerns the target T1, Farnesyl diphosphate synthase (Geobacillus stearothermophilus) (UniProt Q08291).
T1 sequence (whole entry): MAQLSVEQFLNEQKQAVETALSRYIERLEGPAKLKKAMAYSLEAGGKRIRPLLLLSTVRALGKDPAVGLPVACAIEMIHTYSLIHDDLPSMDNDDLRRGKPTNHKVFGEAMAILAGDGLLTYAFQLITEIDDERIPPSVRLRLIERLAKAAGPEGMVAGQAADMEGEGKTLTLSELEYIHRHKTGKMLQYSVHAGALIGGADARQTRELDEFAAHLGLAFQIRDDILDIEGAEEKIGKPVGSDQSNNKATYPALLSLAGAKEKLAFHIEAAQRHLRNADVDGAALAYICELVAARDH
Kind of assay: Relative yield of the product (4b') derived from the compound with GPP in the enzymatic reaction catalyzed by FPP synthase from Bacillus stearothermophilus. It is filed as functional.

Assay [16] deals with T1, Farnesyl diphosphate synthase (Geobacillus stearothermophilus). The assay can be described thus: Relative yield of the product (4b) derived from the compound with DMAPP in the enzymatic reaction catalyzed by FPP synthase from Bacillus stearothermophilus. It is filed as functional.
In assay [17] the test system is Farnesyl diphosphate synthase (Aves). The assay can be described thus: Relative yield of the product (4b) derived from the compound with DMAPP in the enzymatic reaction catalyzed by FPP synthase from avian liver.
In assay [18] the target is T1, Farnesyl diphosphate synthase (Geobacillus stearothermophilus). Described as §1. It is filed as functional.
The test system of assay [19] is Farnesyl diphosphate synthase (Sus scrofa). The assay can be described thus: Relative yield of the product (4b') derived from the compound with GPP in the enzymatic reaction catalyzed by FPP synthase from porcine liver.
The subject of assay [20] is Farnesyl diphosphate synthase (Aves). Kind of assay: Relative yield of the product (3b) derived from the compound with DMAPP in the enzymatic reaction catalyzed by FPP synthase from avian liver.
The test system of assay [21] is Farnesyl diphosphate synthase (Sus scrofa). The assay can be described thus: Relative yield of the product (3b) derived from the compound with DMAPP in the enzymatic reaction catalyzed by FPP synthase from porcine liver; ND = Not detected.

As for `C=C(CCCC)CCOP(=O)(O)OP(=O)(O)O`, the Production entry in the assay with Aves [1] was “Not detected”; in assay [2], 4%; in [3], “Not detected”; in the assay listed under Sus scrofa [4], “Not detected”; in the assay listed under Sus scrofa [5], “Not detected”; with Aves [6] it was “Not detected”.

In the case of `C=C(CCC)CCOP(=O)(O)OP(=O)(O)O`, the Production result in the assay on Aves [7] is “Not detected”; in [8], 29%; in assay [9], 10%; with Aves [10] it was 1%; in the assay listed under Sus scrofa [11], 1.8%; in the assay filed under Sus scrofa [12] it was 1.4%.

Regarding `C=C(CC)CCOP(=O)(O)OP(=O)(O)O`, the Production in [13] turned out to be 25%; in assay [14], 10%; in assay [15] it was 48%; in [16] it was 40%; in [17], 6.7%; in assay [18], 68%. The Production was 27% in [19], 1% in [20] and “Not detected” in assay [21].

These data come from ChEMBL document CHEMBL1130582, “Substrate specificity of thermostable farnesyl diphosphate synthase with alkyl group homologs of isopentenyl diphosphate” (1998).
